In US4710580A, “2-[1,3,2-dioxaphospholan-2-yloxy]ethyl compounds” (American Home Products Corporation, priority 1986, dated 1987):

Columns and labels:
[1] = molecular target: T1, human platelet PLA2 (Homo sapiens, UniProt P14555); assay: in vitro inhibition of human platelet PLA2 (hydrolysis of [1-14C] oleic acid-labelled E. coli membrane phospholipids); type: biochemical; details: pH 7.4, 30 minutes incubation
T1 construct: The PLA2 enriched supernatant fluid is removed and the amount of protein is determined by the Lowry method; from tissue; host or cells: human platelets (expired, blood bank), acid extract, 10,000 g supernatant
T1 sequence (P14555 21-144): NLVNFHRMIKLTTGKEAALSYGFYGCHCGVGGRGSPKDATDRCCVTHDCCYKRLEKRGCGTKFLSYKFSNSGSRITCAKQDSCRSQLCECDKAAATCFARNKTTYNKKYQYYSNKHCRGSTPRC
Procedure: The ability of the compounds to inhibit the activity of PLA2 enzyme is measured in the following in vitro assay.
The assay is carried out as follows:
E. coli, cultured to exponential growth, are sedimented for 15 minutes at 10,000 g and resuspended in sterile isotonic saline (1-3 ml). 10-25 μCi [1-^14 C] oleic acid (or arachidonic acid) is added to a sterile flask, evaporated by N2 and resolubilized with 0.3 ml 20% fatty acid-free BSA. 75-100 ml of nutrient broth and 1 ml E. coli are then added to each flask and incubated for 2-3 hours at 37° C. [1-^14 C] oleic acid labelled E. coli are then sedimented, suspended in saline and added to fresh nutrient broth and incubated for 1.5 hours at 37° C. to complete [1-^14 C] oleic acid incorporation into the phospholipids. After overnight refrigeration of cultures, E. coli are again sedimented, suspended in saline and autoclaved for 15 minutes at 120° C. E. coli cultures are washed twice with saline (first wash contains 1% BSA) and resuspended in saline. […] Cell number is determined by measuring the optical density at 550 nm ([…]=1 O.D.). The amount of radioactivity associated with cells is determined by counting a defined volume of cell suspension. […]
Expired human platelets from the blood bank are centrifuged for 15 minutes at 200 g to obtain a platelet rich plasma fraction and to remove the red blood cells. […] The PLA2 enriched supernatant fluid is removed and the amount of protein is determined by the Lowry method. […]
The assay measures the hydrolysis of E. coli membrane phospholipids and the release of free [1-^14 C] oleic acid from the C-2 position of phospholipids by human platelet PLA2. […] Free fatty acid ([1-^14 C] oleic acid labeled phospholipids are visualized with exposure to iodine vapors. Radioactive areas that co-chromatographed with authentic oleic acid and phospholipid standards are cut out and placed in a scintillation vial. One ml CH3 OH and 10 ml Hydrofluor are added to each cut strip and radioactivity is determined by liquid scintillation counting.
The percent hydrolysis is calculated by the following equation: [formula]

[2] = tested on: lipoxygenase and/or cyclooxygenase pathways of arachidonic acid; assay: 12-O-tetradecanoylphorbol acetate (TPA)-induced murine ear edema test; type: in vivo, Swiss Webster female mice; details: 1 mg/ear, drug 30 minutes after TPA (4 μg/ear), ear thickness measured after 4 hours
Source text: (§1) The ability of the compounds of the invention to inhibit the lipoxygenase and/or cyclooxygenase pathways of arachidonic acid is examined in the in vivo arachidonic acid (AA)-/12-O-tetradecanoylphorbol acetate (TPA)-induced murine ear edema test.
(§2) According to this test, Swiss Webster female mice (Buckshire), approximately 8 weeks old, are placed into plastic boxes in groups of six. Eight groups of mice receive AA topically on the right ear, and another 8 groups receive TPA topically on the right ear. AA and TPA are dissolved in acetone at concentrations of 100 mg/ml ad 100 μg/ml respectively. The phlogistics are applied to the right ear by the means of an automatic pipet. Volumes of 10 μl are applied to the inner and outer surfaces of the ear. Each mouse receives either 2 mg/ear AA or […] TPA. The left ear (control) receives acetone delivered in the same manner. […]
(§3) Measurements are taken with Oditest calipers, 0-10 mm with 0.01 graduations. The right and left ears are measured after 1 hour AA-induced inflammation and 4 hours after TPA-induced inflammation.
(§4) The difference between right and left ear thickness is calculated and the significance is determined by a one way analysis of variance with Dunnett's comparisons to control (P=0.05). Drug effects are expressed as a percent change from control values: [formula]

[3] = tested on: lipoxygenase and/or cyclooxygenase pathways of arachidonic acid; assay: arachidonic acid (AA)-induced murine ear edema test; type: in vivo, Swiss Webster female mice; details: 1 mg/ear, drug 30 minutes prior to AA (2 mg/ear), ear thickness measured after 1 hour
Source text: as §1, §2, §3, §4

Row | inhibition at 100 µM [1] [%] | SMILES | % Change from Control, TOPICAL, TPA [2] [%] | % Change from Control, TOPICAL, AA [3] [%]
1 | 32 | CCCCCCCCCCCCNC(=O)NCCOP1(=O)OCCO1 [Example 1, N-[2-(1,3,2-Dioxaphospholan-2-yloxy)ethyl]-N'-dodecylurea P-oxide] |  | 
2 | 92 | CCCCCCCCCCCCNC(=O)OCCOP1(=O)OCCO1 [Example 2, Dodecylcarbamic acid 2-(1,3,2-dioxaphospholan-2-yloxy)ethyl ester P-oxide] | -38 | -16
3 | 28 | CCCCCCCCCCCCCCCCS(=O)(=O)NCCOP1(=O)OCCO1 [Example 3, N-[2-(1,3,2-dioxaphospholan-2-yloxy)ethyl]-1-hexadecanesulfonamide P-oxide] |  | 
